Experimental data: the METLIN SMRT retention time set (Domingo-Almenara et al. 2019)

Experiment: gradient 5% acetonitrile 3 min, to 50% in 2 min, to 85% in 15 min, held 3 min, 100 µL/min
Settings: column: Zorbax Extend-C18 2.1 x 50 mm; eluents: water / acetonitrile, 0.1% formic acid
Method in brief: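 Data were gathered over 3 months by HPLC coupled to a quadrupole time-of-flight mass spectrometer, operated in positive and negative ionization mode. Mixtures of ~100 pure standards ran on a Zorbax Extend-C18 column (2.1 × 50 mm, 1.8 μm) at 100 μL/min, with water and acetonitrile each containing 0.1% formic acid and dead and dwell volumes of 40 μL and 900 μL. Retention time was read from adduct peaks picked by computer and checked manually.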

| RP-LC retention time | SMILES |
| --- | --- |
| 821 s | Cc1ccc(NS(=O)(=O)c2cc(-c3[nH]ncc3C(=O)N3CCCCC3)oc2C)cc1C |
| 642 s | Cc1nn(-c2ccc(Cl)cc2)c(C)c1S(=O)(=O)N1CCC(C(=O)N2CCN(C)CC2)CC1 |
| 599 s | CCn1c(CCNC(=O)c2ccc3c(c2)OCO3)nc2cccnc21 |
| 680 s | CN(C)c1cccc(-c2nc(-c3ccc(CNC(=O)C4CC4)s3)no2)c1 |
| 558 s | Cc1cc(OCC(O)CN2CCN(C)CC2)ccc1Cl (centres undefined) |
| 759 s | Cc1nnc(N2CCCC(C(=O)N3CCN(c4ccccc4)CC3)C2)c2nn(-c3ccccc3)c(C)c12 (centres undefined) |
| 895 s | CCCn1c(=O)c(C)nc2cc(-c3noc(C4CC(=O)N(c5ccccc5)C4)n3)ccc21 (centres undefined) |
| 753 s | COCc1nc2cccnc2n1C1CCN(C(=O)Nc2ccc(Br)c(C)c2)CC1 |
| 877 s | CC(C)Cc1nc2nccc(-c3ccccc3)n2n1 |
| 867 s | O=C(Nc1ccnn1Cc1ccccc1)c1cc(=O)c2cc(Cl)ccc2o1 |
| 633 s | CCN(CC)CCNC(=O)CN1C(=O)C2CCCCN2c2ccc(S(=O)(=O)N3CCCC3)cc21 (centres undefined) |
| 972 s | COc1ccc(C2(C(=O)N3CC(c4nc(CCOCc5ccccc5)no4)C3)CC2)cc1 |
| 826 s | Cc1cccc(CN2CC(=O)N(c3cccc(C)c3)[C@@H]3CS(=O)(=O)C[C@@H]32)c1 |
| 754 s | COc1cccc2cc(C(=O)NCC3CCN(S(=O)(=O)C4CC4)CC3)oc12 |
| 750 s | C=CCn1ccc2c(OCC(=O)Nc3cc(C)on3)cccc2c1=O |
| 688 s | CC(O)CNC(=O)C1CCCN(c2ccc(Sc3ccc(Br)cc3)nn2)C1 (centres undefined) |
| 854 s | O=C(Cc1cccc(F)c1)N1CCN(C(=O)c2nnn3c2COC(c2ccccc2)C3)CC1 (centres undefined) |
| 678 s | CNC(=O)C1CCCN(c2nc3ncn(CC(=O)Nc4cc(C)ccc4OC)c(=O)c3s2)C1 (centres undefined) |
| 568 s | O=C(NCCCN1CCOCC1)c1c(OCC2CC2)cc(=O)n2c1CCCCC2 |
| 778 s | Cc1cc(F)ccc1NC(=O)CCc1c(C)nn(-c2cc(N(C)C)ncn2)c1C |
| 1030 s | CCn1c(=O)c(C)nc2cc(-c3noc(-c4ccc5c(c4)OCO5)n3)ccc21 |
| 751 s | Cc1ccc(Nc2c(-c3ccc(N4CCOCC4)cc3)nc3ncccn23)cc1Cl |

| RP-LC retention time | SMILES |
| --- | --- |
| 597 s | CN(C)C(=O)/N=N/C(=O)N(C)C |
| 793 s | CCCNC(=O)N1CC(c2nc(-c3ccc(F)cc3)no2)C2(CCOCC2)C1 (centres undefined) |
| 961 s | CCOC(=O)C1CCN(C(=O)c2ccc(-c3csc(C4CC4)n3)cc2)CC1 |
| 663 s | COc1ccc(CNC(=O)[C@@]23CCCC[C@H]2N(C)C(=O)CC3)c(OC)c1 |
| 1200 s | CCOc1ccc(-c2nc(Cc3noc(-c4ccccc4)n3)c(C)o2)cc1 |
| 1070 s | COc1ccc(S(=O)(=O)N2CCCC(C(=O)NCCC3=CCCCC3)C2)cc1C (centres undefined) |
| 589 s | CN(C1CCOCC1)C1CCN(C(=O)c2ccc(Cl)cc2)CC1 |
| 607 s | CNC(=O)c1noc([C@@H]2CC(F)(F)CN2C(=O)CCOC)n1 |
| 781 s | COC(=O)c1[nH]c2c(c1C)C(=O)CC(c1cc(OC)c(OC)c(OC)c1)C2 (centres undefined) |
| 1130 s | C=CCOc1c(CCC)cc(CCC)cc1C(N)=O |
| 785 s | CN1C(=O)c2cc(C(=O)NCc3ccccc3F)nn2CC1(C)C(=O)NC1CCCCC1 (centres undefined) |
| 738 s | CC1CCc2nc3ncn(CC(=O)Nc4cccc(C#N)c4)c(=O)c3cc2C1 (centres undefined) |
| 676 s | N#Cc1ccc(-c2nc(-c3ccc4c(c3)nnn4CCN3CCCCC3)no2)cc1 |
| 1160 s | COc1ccc(OC)c(NC(=O)c2cc(C)n3nc(-c4ccco4)cc3n2)c1 |
| 990 s | COc1cccc(-n2nnc(-c3nsc(Nc4ccccc4)n3)c2C)c1 |
| 621 s | CNC(=O)[C@H]1O[C@@H](n2cnc3c(N)ncnc32)C(O)[C@H]1O (some centres undefined) |
| 646 s | O=C(NCCc1nc2cccnc2n1-c1ccccc1)c1ccoc1 |
| 679 s | CN1C(=O)c2cccn2CC1CNS(=O)(=O)c1ccc(F)cc1 (centres undefined) |
| 584 s | COc1ccccc1CC(=O)NC1CCN(Cc2c(C)noc2C)C1 (centres undefined) |
| 567 s | O=C(N[C@@H]1CN(c2ncccn2)C[C@H]1CO)c1ccoc1 |
| 651 s | Cc1oc2c(c1C(=O)NCCc1ccccc1Cl)C1=NCCN1C=N2 |
| 791 s | Cc1nn(-c2cc(N3CCCC3)ncn2)c(C)c1CCC(=O)Nc1ccc(F)cc1Cl |

| RP-LC retention time | SMILES |
| --- | --- |
| 668 s | CCOc1ccccc1C(=O)NCCc1csc(-c2cccnc2)n1 |
| 876 s | COc1cc(NC(=O)CN2C(=O)C(C)(C)c3ccccc32)cc(OC)c1 |
| 792 s | CCNS(=O)(=O)c1cc(-c2nc(C)cs2)n(C)c1C |
| 1130 s | CCOC(=O)c1ccccc1NC(=O)Cn1c(=O)c(CCC(=O)NC2CCCC2)nc2ccccc21 |
| 683 s | COc1cccc(CCC(=O)Nc2ccc3ncnc(N4CCCC4)c3c2)c1 |
| 684 s | O=C(CC1CCCC1)Nc1ccc2c(c1)CCC(=O)N2 |
| 646 s | CC(=O)N1CCN(c2ccc(NC(=O)c3ccccc3Br)cc2)CC1 |
| 665 s | CN(Cc1nc2cc(C(=O)N3CCCC3)ccc2n1C)C(=O)Nc1cccc(Br)c1 |
| 896 s | CCOc1ccc(NS(=O)(=O)c2cc3c(s2)CCN(C(=O)C2CCC2)C3)cc1 |
| 563 s | O=C1C2C3C=CC(C3)C2C(=O)N1CCN1CCN(Cc2ccc([N+](=O)[O-])cc2)CC1 (centres undefined) |
| 881 s | CCOC(=O)C1CCN(C(=O)c2nnc(-c3ccc(S(=O)(=O)N4CCCC4)cc3)o2)CC1 |
| 912 s | COc1ccc(-c2noc(C3CC(=O)N(c4ccc(F)cc4)C3)n2)cc1 (centres undefined) |
| 1100 s | O=S(=O)(Cc1ccccc1Cl)N1CCc2nc(-c3ccc(F)cc3)ncc2C1 |
| 679 s | COc1ccc(-c2ncc3c(=O)n(Cc4ccccc4C)c(=O)n(C)c3n2)cc1 |
| 744 s | COC(=O)c1ccc2c(=O)n(Cc3ccc(OC)cc3)c(N3CCC(C(N)=O)CC3)nc2c1 |
| 761 s | O=C(NCC(=O)N1CCCc2ccccc21)c1cccs1 |
| 1040 s | Cc1ccccc1Nc1c(-c2cccc(Br)c2)nc2cnccn12 |
| 693 s | Cc1cc(C)n(-c2ccnc(N3CCC(C(=O)NC4CC4)CC3)n2)n1 |
| 1030 s | CCOC(=O)c1[nH]c(C)c(C(=O)C(C)N(CC(C)C)C(=O)c2ccc(C)cc2)c1C (centres undefined) |
| 750 s | CCSc1nnc(-c2nn(C)c3c2CN(S(=O)(=O)CC)CC3)n1CC |
| 1070 s | COc1c(C(=O)NCc2ccc3c(c2)OCO3)sc2ccc(Cl)cc12 |
| 925 s | O=C(Nc1cc(-c2ccccc2)[nH]n1)c1ccc(Cl)cc1 |

| RP-LC retention time | SMILES |
| --- | --- |
| 973 s | CCn1c(C(=O)N2CCN(c3ccc(OC)cc3)CC2)cc2sccc21 |
| 582 s | CCCCN(C)Cc1nc2nc(C)cc(N3CCOCC3)n2n1 |
| 812 s | Cc1noc(C)c1-c1ccc(S(=O)(=O)NC(C)C)cc1 |
| 525 s | CCN1CCN(C(=O)C2CCN(CCc3cn(CC)c4ncccc34)CC2)CC1 |
| 993 s | COc1ccc(N2C(=O)C3N=NN(Cc4nc(-c5cccc(C)c5)no4)C3C2=O)cc1 (centres undefined) |
| 1110 s | Cc1ccc(NC(=O)Cn2c(C)nc3c(sc4nc(-c5ccccc5)ccc43)c2=O)cc1F |
| 821 s | COc1cc(NC(=O)COc2cc(C)nc(N3CCN(c4ccccc4)CC3)n2)cc(OC)c1 |
| 648 s | CC(C)Nc1nc(N2CCN(C3CCCCC3)CC2)nc2c1cnn2C |
| 666 s | COc1ccc(C(=O)N2C[C@@H]3C[C@H]2C[C@@H]3NC(=O)c2cccs2)cn1 |
| 913 s | O=C(C1=CN(c2ccc(Oc3ccccc3)cc2)c2ccccc2S1(=O)=O)N1CCOCC1 |
| 956 s | COc1cccc(-n2c(=O)c3sccc3n(Cc3nc(-c4ccccc4)no3)c2=O)c1 |
| 847 s | CCn1c(N2CCCC(C(=O)NCCCN3CCCc4ccccc43)C2)cc(=O)n(C)c1=O (centres undefined) |
| 624 s | Cc1nc(N)sc1-c1ccnc(Nc2ccc(N3CCOCC3)cc2)n1 |
| 665 s | COc1ccc(C2(C(=O)N3C[C@@H](CO)[C@H](c4nc(C)no4)C3)CC2)cc1 |
| 825 s | CCN(Cc1ccccc1)C(=O)CS(=O)Cc1cnn(-c2ccccc2)c1-n1cccc1 (centres undefined) |
| 557 s | c1cncc(CN2CCCC(OCc3nc(-c4ccncc4)no3)C2)c1 (centres undefined) |
| 1040 s | CCC(=O)n1nc(C)c(S(=O)(=O)N2CCCCC2)c1C |
| 906 s | c1ccc(-c2csc(Nc3ncccn3)n2)cc1 |
| 930 s | Clc1ccc(-c2nc3cnccn3c2Nc2ccc3c(c2)OCO3)cc1 |
| 602 s | CN(C)C[C@@H]1CN(S(C)(=O)=O)C[C@H]1NC(=O)CC1=CCCCC1 |
| 897 s | CCc1noc(NC(C)=O)c1-c1ccc(C)c(S(=O)(=O)Nc2ccc(C)cc2C)c1 |
| 606 s | COc1ccc(CN(C)Cc2cc(=O)n3cc(Cl)ccc3n2)cc1OC |

| SMILES | RP-LC retention time |
| --- | --- |
| CCOC(=O)c1c(N)n(Cc2ccccc2)c2nc3ccccc3nc12 | 739 s |
